From patent US10711249B2, “Method for inducing hepatocytes” (KYOTO UNIVERSITY, priority 2014, dated 2020)
Structures can show the parent of a compound that is named as a salt. One block for each molecule: values may come before it.

Key:
adrenergic α1 receptor = test: Mechanism study: albumin secretion with adrenergic receptor blocking agents added with methoxamine in Stage 3; type: cell-based, human; details: 10 μM blocking agent added with methoxamine in Stage 3, 8 days
[1] = system: hepatoblasts induced from human iPS cells; test: Albumin secreted into the culture medium measured by ELISA; type: cell-based; details: 1 μM in Stage 3, 8 days
[2] = system: cells obtained in Stage 2 (from human iPS cells); test: Oil Red staining of induced cells; type: cell-based; details: agent in Stage 3 for 8 days
Method: (§1) 1 mg/ml ICG (indocyanine green) (Sigma) was added to each cell population and cultured for 1 hour. Then, ICG uptake by the cells was observed.
The cells induced in the presence of HGF+OsM, methoxamine hydrochloride or DMSO and HepG2 were stained with Oil Red.

[3] = system: Mouse ES cells (D3 cell line); test: Mouse ES cell-derived cells immunostained with anti-albumin, anti-Cyp3a4 and anti-C/ebpβ antibodies; type: cell-based; details: Stage 3, 8 days; compared with HGF+OsM
Method: The content ratio of Sox17-positive cells was determined.
The content ratio of AFP-positive cells was determined.
The cells were cultured for 8 days.
The cells cultured in the medium containing methoxamine in Stage 3 for 8 days, the cells cultured in the medium containing HGF+OsM (positive control) in the same manner as above and also the cells cultured in the medium containing DMSO (negative control) were used. These cells were immuno-stained with an anti-albumin antibody (Albumin), anti-Cyp3a4 antibody and anti-C/ebpβ antibody.

[4] = system: cells obtained in Stage 2 (from human iPS cells); test: PAS staining of induced cells (glycogen accumulation); type: cell-based; details: agent in Stage 3 for 8 days
Method: as §1
The cells induced in the presence of HGF+OsM, methoxamine hydrochloride or DMSO, and HepG2 were stained with PAS.

[5] = system: hepatoblasts induced from human iPS cells 201B6; test: Induction of albumin-positive cells in Stage 3 (anti-albumin immunostaining, albumin mRNA by quantitative PCR); type: cell-based
Method: The effects of analogous compounds (adrenergic receptor agonist, in particular, an agent having α receptor stimulating action) serving as an alternative compound for a methoxamine hydrochloride were checked. In Stage 3 as mentioned above, cells were cultured in a Hepatocyte Culture Medium (HCM SingleQuots Kit) supplemented with 1 μM etilefrine, phenylephrine or methoxamine hydrochloride for 8 days. The content ratio of albumin-positive cells and the mRNA expression level of albumin were measured in the same manner as above. […] Furthermore, the amount of albumin secreted from the obtained cell population into the culture mediumliquid was measured by ELISA.

[6] = system: hepatocytes induced from human iPS cells; test: Gene expression profile by RNA sequencing analysis (PCA, liver marker heat map); type: cell-based
Text: The hepatocytes induced from human iPS cells were subjected to RNA sequencing analysis and gene expression profiles were compared.

[7] = system: cells obtained in Stage 2 (from human iPS cells); test: ICG (indocyanine green) uptake by induced cells; type: cell-based; details: agent in Stage 3 for 8 days (methoxamine hydrochloride 1 μM; HGF and oncostatin M 20 ng/ml each); 1 mg/ml ICG, 1 hour
Method: as §1

CYP1A1 = test: Drug metabolizing enzyme induction reaction: CYP1A1 mRNA by quantitative PCR; type: in vitro ADME, human; details: 100 μM omeprazole, 2 days
CYP3A4 = CYP3A4 expression in induced cells (immunostaining and quantitative PCR)
Method: A cell population obtained by culturing the cells obtained in Stage 2 in a Hepatocyte Culture Medium (HCM SingleQuots Kit) containing 20 ng/ml HGF and 20 ng/ml oncostatin M (HGF+OsM) for 8 days; a cell population obtained by culturing the cells obtained in Stage 2 in a Hepatocyte Culture Medium (HCM SingleQuots Kit) supplemented with 1 μM methoxamine hydrochloride for 8 days; a cell population obtained by culturing the cells obtained in Stage 2 in a Hepatocyte Culture Medium (HCM SingleQuots Kit) supplemented with 1 μM pregnenolone for 8 days; and a cell population obtained by culturing the cells obtained in Stage 2 in a Hepatocyte Culture Medium (HCM SingleQuots Kit) supplemented with DMSO for 8 days were immuno-stained with a CYP3A4 antibody (Proteintech Group) (FIG. 9A). […] CYP3A4mRNA expression levels were measured in these cell populations by quantitative PCR in the same manner as above.

[8] = system: Mouse ES cells (D3 cell line); test: Induction of hepatocytes from mouse ES cells: expression of Tat, Cyp3a11, Cyp3a13; details: 1 μM in Stage 3, 8 days; compared with HGF+OsM

Structure (SMILES): CCNCC(O)c1cccc(O)c1 (centres unmarked) [etilefrine]
amount of albumin secreted into the culture medium (ELISA) [1]: cells having an ability to secrete albumin can be induced

Structure (SMILES): COc1ccc(OC)c(C(O)C(C)N)c1 (centres unmarked) [methoxamine hydrochloride]
Oil Red staining (lipid drops) of the induced cells [2]: accumulation of lipid drops was observed in some of the cells
immunostaining for Albumin, Cyp3a4 and C/ebpβ [3]: very similar expression was observed
PAS staining (glycogen) of the induced cells [4]: stained red-purple
concentration at which albumin-expressing cells were obtained (albumin mRNA, quantitative PCR) ([5]; Stage 3, 8 days, tested 0 M, 1 fM, 1 pM, 1 nM, 1 μM, 50 μM, 100 μM): ≥ 1 fM
gene expression profile compared with hepatocytes induced by HGF and OsM [6]: substantially the same gene expression profile
ICG uptake by the induced cells [7]: ICG uptake was observed
amount of albumin secreted into the culture medium (ELISA) [1]: cells having an ability to secrete albumin can be induced

Structure (SMILES): CNC[C@H](O)c1cccc(O)c1 [phenylephrine]
amount of albumin secreted into the culture medium (ELISA) [1]: cells having an ability to secrete albumin can be induced

Structure (SMILES): CC(=O)[C@H]1CC[C@H]2[C@@H]3CC=C4C[C@@H](O)CC[C@]4(C)[C@H]3CC[C@]12C [pregnenolone]
CYP3A4 immunostaining of the induced cells (CYP3A4; agent in Stage 3 for 8 days (1 μM; HGF and oncostatin M 20 ng/ml each)): Cells expressing CYP3A4 were found
CYP3A4 mRNA expression level (quantitative PCR) (CYP3A4; agent in Stage 3 for 8 days, relative to cells induced with DMSO): intensively expressed
expression of Tat, Cyp3a11 and Cyp3a13 [8]: express the same drug metabolizing enzymes as in the case where HGF+OsM was used
induction of albumin-positive cells at two concentrations ([5]; pregnenolone 150 nM and 1 μM in Stage 3): the same results were obtained

Other lines, results leading:

volume of albumin secretion (adrenergic α1 receptor): decreased
Structure (SMILES): COc1cc2nc(N3CCN(C(=O)C4COc5ccccc5O4)CC3)nc(N)c2cc1OC (centres unmarked) [doxazosin]

CYP1A1 mRNA expression level (CYP1A1; HepG2 cells): expression of CYP1A1 was induced
CYP1A1 mRNA expression level (CYP1A1; cell population induced with 1 μM methoxamine hydrochloride in Stage 3): expression of CYP1A1 was induced
CYP1A1 mRNA expression level (CYP1A1; cell population induced with HGF+OsM in Stage 3): expression of CYP1A1 was induced
Structure (SMILES): COc1ccc2[nH]c([S+]([O-])Cc3ncc(C)c(OC)c3C)nc2c1 (centres unmarked) [omeprazole]
